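Assay format: 96-well plates, 48-hour exposure. The concentration for 50% growth inhibition is given as GI50.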 Activity calls are given as the source filed them. Cut-off read from the data, not from the text of the source: active = GI50 up to about 1.1 µM and inactive = higher.
Key:
Assay in all cases: NCI-60 cell line screen, 48 h
COLO 205 = tested on: COLO 205
HL-60 = tested on: HL-60
SNB-75 = tested on: SNB-75
UACC-257 = tested on: UACC-257
OVCAR-5 = tested on: OVCAR-5
SK-MEL-5 = tested on: SK-MEL-5
CAKI-1 = tested on: CAKI-1
SN12C = tested on: SN12C
A549 = tested on: A549
HT-29 = tested on: HT-29
KM12 = tested on: KM12
NCI-H522 = tested on: NCI-H522
M14 = tested on: M14
MOLT-4 = tested on: MOLT-4
TK-10 = tested on: TK-10
HCT-116 = tested on: HCT-116
SK-MEL-2 = tested on: SK-MEL-2
Malme-3M = tested on: Malme-3M
HCC 2998 = tested on: HCC 2998

Measured: GI50

O=C1C(Cl)=C(NCCOCCO)C(=O)c2c(O)ccc(O)c21
inactive: COLO 205 2.17 µM | HL-60 3.89 µM | SNB-75 17 µM | UACC-257 2.97 µM | OVCAR-5 19.5 µM | SK-MEL-5 1.96 µM | CAKI-1 23.9 µM | SN12C 11 µM | A549 5.75 µM | HT-29 3.08 µM | KM12 3.32 µM | NCI-H522 1.98 µM | M14 11.2 µM | MOLT-4 5.19 µM | TK-10 13.6 µM | HCT-116 2.86 µM | SK-MEL-2 8.67 µM | Malme-3M 2.82 µM

CC1=C(C(=O)Nc2ccccc2C)C(c2ccco2)C(C(=O)Nc2ccccc2C)=C(C)N1C
inactive: HL-60 > 100 µM | UACC-257 > 100 µM | OVCAR-5 > 100 µM | SK-MEL-5 > 100 µM | CAKI-1 > 100 µM | SN12C > 100 µM | A549 > 100 µM | HT-29 > 100 µM | KM12 > 100 µM | NCI-H522 > 100 µM | M14 > 100 µM | HCC 2998 > 100 µM | MOLT-4 51.2 µM | TK-10 > 100 µM | HCT-116 > 100 µM | SK-MEL-2 > 100 µM | Malme-3M > 100 µM

CCc1cccc(C)c1NC(C)=O
inactive: HL-60 > 100 µM | SNB-75 > 100 µM | UACC-257 > 100 µM | OVCAR-5 > 100 µM | SK-MEL-5 > 100 µM | CAKI-1 > 100 µM | A549 > 100 µM | HT-29 > 100 µM | KM12 > 100 µM | M14 > 100 µM | HCC 2998 > 100 µM | MOLT-4 > 100 µM | TK-10 > 100 µM | HCT-116 > 100 µM | SK-MEL-2 > 100 µM | Malme-3M > 100 µM

O=C(O)C(CO)NC(=O)n1c2ccccc2c2ccccc21 (stereo not drawn)
inactive: COLO 205 > 100 µM | HL-60 > 100 µM | UACC-257 > 100 µM | SK-MEL-5 > 100 µM | CAKI-1 > 100 µM | SN12C > 100 µM | A549 > 100 µM | HT-29 > 100 µM | KM12 > 100 µM | NCI-H522 > 100 µM | HCC 2998 > 100 µM | MOLT-4 > 100 µM | TK-10 > 100 µM | HCT-116 > 100 µM | SK-MEL-2 > 100 µM | Malme-3M > 100 µM

CCCCCCCCCCCCCCCCOCC(CP(=O)([O-])OCC[n+]1ccccc1)OC (stereo not drawn)
inactive: COLO 205 6.46 µM | HL-60 1.76 µM | SNB-75 8.45 µM | UACC-257 14.5 µM | SK-MEL-5 14.1 µM | CAKI-1 10.4 µM | SN12C 11.4 µM | A549 10.6 µM | HT-29 4.21 µM | KM12 2.67 µM | NCI-H522 17.3 µM | M14 5.6 µM | HCC 2998 2.45 µM | MOLT-4 4.65 µM | TK-10 2.9 µM | HCT-116 9.66 µM | SK-MEL-2 16.5 µM | Malme-3M 17.8 µM

O=C1Nc2c(ccc(Cl)c2I)C1=O
inactive: COLO 205 16.3 µM | HL-60 18.5 µM | UACC-257 > 10 µM | OVCAR-5 20 µM | SK-MEL-5 15.7 µM | CAKI-1 16.4 µM | SN12C 17.1 µM | A549 34.9 µM | HT-29 28.4 µM | KM12 24.4 µM | NCI-H522 15.6 µM | M14 15.7 µM | HCC 2998 19.6 µM | MOLT-4 18.7 µM | TK-10 36.2 µM | HCT-116 19.1 µM | SK-MEL-2 13.7 µM | Malme-3M 15 µM

— ChEMBL document CHEMBL1201862, “PubChem BioAssay data set” (2004)
